{"source": "ChEMBL document CHEMBL3526091", "about": "“Pharmacokinetics, metabolism, and excretion of the glycogen synthase kinase-3 inhibitor LY2090314 in rats, dogs, and humans: a case study in rapid clearance by extensive metabolism with low circulating metabolite exposure” (Drug Metab Dispos, 2013)", "key": {"Rattus norvegicus": {"tested_on": "Rattus norvegicus", "test": "Total drug recovery in Sprague-Dawley rat at 5 mg/kg, iv administered for 30 mins during 0 to 168 hrs time interval by radio analysis", "type": "ADME, organism-based", "parameters": "dose 5 mg/kg, dosed compound name [14C]LY2090314, route intravenous", "conditions": "in vivo"}, "[1]": {"test": "Tmax in cancer patient at 120 mg for 60 mins treated 1/1 cycle/day", "type": "ADME, organism-based", "parameters": "dosed compound name LY2090314", "conditions": "human, in vivo"}, "[2]": {"test": "Volume of distribution at steady state in cancer patient at 120 mg for 60 mins treated 1/1 cycle/day", "type": "ADME, organism-based", "parameters": "dosed compound name LY2090314", "conditions": "human, in vivo, read-out: Vdss"}, "[3]": {"test": "Half life in cancer patient at 80 mg for 60 mins treated 1/1 cycle/day", "type": "ADME, organism-based", "parameters": "dosed compound name LY2090314", "conditions": "human, in vivo"}, "[4]": {"test": "Half life in cancer patient at 80 mg for 60 mins treated 1/8 cycle/day", "type": "ADME, organism-based", "parameters": "dosed compound name LY2090314", "conditions": "human, in vivo"}, "[5]": {"test": "Cmax in cancer patient at 20 mg for 60 mins treated 1/1 cycle/day", "type": "ADME, organism-based", "parameters": "dose 20 mg, dosed compound name LY2090314", "conditions": "human, in vivo"}, "[6]": {"test": "Tmax in cancer patient at 10 mg for 60 mins treated 1/1 cycle/day", "type": "ADME, organism-based", "parameters": "dosed compound name LY2090314", "conditions": "human, in vivo"}, "[7]": {"test": "AUC (0 to infinity) in cancer patient at 20 mg for 60 mins treated 2/1 cycle/day", "type": "ADME, organism-based", "parameters": "dose 20 mg, time infinity, dosed compound name LY2090314", "conditions": "human, plasma"}, "[8]": {"test": "Tmax in cancer patient at 80 mg for 60 mins treated 1/1 cycle/day", "type": "ADME, organism-based", "parameters": "dosed compound name LY2090314", "conditions": "human, in vivo"}, "[9]": {"test": "Drug recovery in beagle dog urine at 5 mg/kg, iv administered for 30 mins during 0 to 168 hrs time interval by radio analysis", "type": "ADME, organism-based, Canis lupus familiaris", "parameters": "dose 5 mg/kg, dosed compound name [14C]LY2090314, route intravenous", "conditions": "in vivo"}, "[10]": {"test": "Drug recovery in bile duct-cannulated Sprague-Dawley rat assessed as radioactivity in feces during 0 to 24 hrs at 5 mg/kg, iv administered for 30 mins relative to dosed radioactivity", "type": "ADME, organism-based", "parameters": "dose 5 mg/kg, dosed compound name [14C]LY2090314, route intravenous", "conditions": "in vivo"}, "[11]": {"test": "AUC (0 to infinity) in cancer patient at 60 mg for 60 mins treated 1/1 cycle/day", "type": "ADME, organism-based", "parameters": "dose 60 mg, time infinity, dosed compound name LY2090314", "conditions": "human, plasma"}, "[12]": {"test": "Clearance in cancer patient at 120 mg for 60 mins treated 1/1 cycle/day", "type": "ADME, organism-based", "parameters": "dosed compound name LY2090314", "conditions": "human, in vivo"}, "[13]": {"test": "Cmax in cancer patient at 10 mg for 60 mins treated 1/1 cycle/day", "type": "ADME, organism-based", "parameters": "dose 10 mg, dosed compound name LY2090314", "conditions": "human, in vivo"}, "[14]": {"test": "Drug recovery in beagle dog urine at 5 mg/kg, iv administered for 30 mins during 0 to 24 hrs time interval by radio analysis", "type": "ADME, organism-based, Canis lupus familiaris", "parameters": "dose 5 mg/kg, dosed compound name [14C]LY2090314, route intravenous", "conditions": "in vivo"}, "[15]": {"test": "Volume of distribution at steady state in beagle dog at 5 mg/kg, iv administered for 30 mins", "type": "ADME, organism-based, Canis lupus familiaris", "parameters": "dose 5 mg/kg, dosed compound name [14C]LY2090314, route intravenous", "conditions": "in vivo, read-out: Vdss"}, "Blood": {"tested_on": "Blood", "test": "Drug uptake in Sprague-Dawley rat blood at 5 mg/kg, iv administered for 30 mins", "type": "ADME, organism-based", "parameters": "dose 5 mg/kg, dosed compound name [14C]LY2090314, route intravenous", "conditions": "in vivo, 0.5 h"}, "[16]": {"test": "Half life in cancer patient at 20 mg for 60 mins treated 1/1 cycle/day", "type": "ADME, organism-based", "parameters": "dosed compound name LY2090314", "conditions": "human, in vivo"}, "[17]": {"test": "Drug uptake in beagle […] blood at 5 mg/kg, iv administered for 30 mins", "type": "ADME, organism-based, Canis lupus familiaris", "parameters": "dose 5 mg/kg, dosed compound name [14C]LY2090314, route intravenous", "conditions": "in vivo, 0.5 h"}, "[18]": {"test": "Volume of distribution at steady state in cancer patient at 120 mg for 60 mins treated 1/8 cycle/day", "type": "ADME, organism-based", "parameters": "dosed compound name LY2090314", "conditions": "human, in vivo, read-out: Vdss"}, "[19]": {"test": "Drug metabolism in Mdr1a knockout Sprague-Dawley rat bile at 5 mg/kg, iv administered for 30 mins", "type": "ADME, organism-based", "parameters": "dose 5 mg/kg, dosed compound name LY2090314, route intravenous", "conditions": "in vivo, 0.5 h"}, "[20]": {"test": "Half life in cancer patient at 10 mg for 60 mins treated 2/1 cycle/day", "type": "ADME, organism-based", "parameters": "dosed compound name LY2090314", "conditions": "human, in vivo"}, "[21]": {"test": "Drug recovery in Sprague-Dawley rat feces at 5 mg/kg, iv administered for 30 mins during 0 to 24 hrs time interval by radio analysis", "type": "ADME, organism-based", "parameters": "dose 5 mg/kg, dosed compound name [14C]LY2090314, route intravenous", "conditions": "in vivo"}, "[22]": {"test": "Tmax in cancer patient at 60 mg for 60 mins treated 1/1 cycle/day", "type": "ADME, organism-based", "parameters": "dosed compound name LY2090314", "conditions": "human, in vivo"}, "Canis familiaris": {"tested_on": "Canis familiaris", "test": "Cmax in beagle dog assessed as total radioactivity at 5 mg/kg, iv administered for 30 mins", "type": "ADME, organism-based, Canis lupus familiaris", "parameters": "dose 5 mg/kg, dosed compound name [14C]LY2090314, route intravenous", "conditions": "in vivo, 0.5 h"}, "[23]": {"test": "AUC (0 to infinity) in cancer patient at 80 mg for 60 mins treated 1/8 cycle/day", "type": "ADME, organism-based", "parameters": "dose 80 mg, time infinity, dosed compound name LY2090314", "conditions": "human, plasma"}, "[24]": {"test": "Drug recovery in bile duct-cannulated Sprague-Dawley rat assessed as radioactivity in bile during 0 to 12 hrs at 5 mg/kg, iv administered for 30 mins relative to dosed radioactivity", "type": "ADME, organism-based", "parameters": "dose 5 mg/kg, dosed compound name [14C]LY2090314, route intravenous", "conditions": "in vivo"}}}
{"smiles": "O=C1NC(=O)C(c2cnc3ccccn23)=C1c1cn2c3c(cc(F)cc13)CN(C(=O)N1CCCCC1)CC2", "note": "[LY-2090314]", "values": [{"measurement": "Radiolabel recovery", "setting": "Rattus norvegicus", "result": 97.7, "unit": "%"}, {"measurement": "Tmax", "setting": "[1]", "result": 58.8, "unit": "min"}, {"measurement": "Vd", "setting": "[2]", "result": 82.1, "unit": "L"}, {"measurement": "half-life", "setting": "[3]", "result": 154, "unit": "min"}, {"measurement": "half-life", "setting": "[4]", "result": 156, "unit": "min"}, {"measurement": "Cmax", "setting": "[5]", "result": 246, "unit": "ng/mL"}, {"measurement": "Tmax", "setting": "[6]", "result": 57, "unit": "min"}, {"measurement": "AUC(0-inf)", "setting": "[7]", "result": 404, "unit": "ng·h/mL"}, {"measurement": "Tmax", "setting": "[8]", "result": 1, "unit": "h"}, {"measurement": "Radiolabel recovery", "setting": "[9]", "result": 20.6, "unit": "%"}, {"measurement": "Radiolabel recovery", "setting": "[10]", "result": 6.75, "unit": "%"}, {"measurement": "AUC(0-inf)", "setting": "[11]", "result": 1600, "unit": "ng·h/mL"}, {"measurement": "clearance", "setting": "[12]", "result": 605, "unit": "mL/min"}, {"measurement": "Cmax", "setting": "[13]", "result": 122, "unit": "ng/mL"}, {"measurement": "Radiolabel recovery", "setting": "[14]", "result": 19.8, "unit": "%"}, {"measurement": "Vd", "setting": "[15]", "result": 0.915, "unit": "L/kg"}, {"measurement": "Compound recovery", "setting": "Blood", "result": 83.4, "unit": "%"}, {"measurement": "half-life", "setting": "[16]", "result": 110, "unit": "min"}, {"measurement": "Compound recovery", "setting": "[17]", "result": 25.5, "unit": "%"}, {"measurement": "Vd", "setting": "[18]", "result": 143, "unit": "L"}, {"measurement": "Drug metabolism", "setting": "[19]", "result": "metabolite_detected"}, {"measurement": "half-life", "setting": "[20]", "result": 146, "unit": "min"}, {"measurement": "Radiolabel recovery", "setting": "[21]", "result": 91.8, "unit": "%"}, {"measurement": "Tmax", "setting": "[22]", "result": 33, "unit": "min"}, {"measurement": "Cmax", "setting": "Canis familiaris", "result": 7240, "unit": "ng/mL"}, {"measurement": "AUC(0-inf)", "setting": "[23]", "result": 1830, "unit": "ng·h/mL"}, {"measurement": "Radiolabel recovery", "setting": "[24]", "result": 85.2, "unit": "%"}]}
